Measured values taken from patent publication US9663545B2, “Organometallic 2-cyano-2-aminobenzoate-propyl derivates and their use as anthelmintics” (UNIVERSITÄT ZÜRICH, priority 2013, dated 2017).

Assay: stability in sheep plasma (LC-MS)
Details: 37° C., different time intervals, diazepam internal standard, new peak of the hydrolysed product arises
Experimental: Compound 8a and diazepam (internal standard) were incubated at 37° C. for different time intervals and their stability was checked using an LC-MS technique.

2-cyano-2-(4-((trifluoromethyl)thio)benzamido)propyl ferrocenoate [Compound 8a]
stability in sheep plasma (LC-MS peak of the compound): decreasing within 24 hours
